Where “and” joins values, the source holds several entries; their conditions need not be identical. Equal values may be shown once. Toxic doses and inconclusive results are not listed. Cut-off read from the data, not from the text of the source: active = T/C of 150% or more; inactive = T/C below 125%.
Tested on: L1210 leukemia ip in BDF1 mice, survival T/C
Assay: NCI In Vivo Anticancer Drug Screen. Data for tumor model L1210 Leukemia (intraperitoneal) in B6D2F1 (BDF1) mice
Details: endpoint: mean survival time, higher = longer survival
Method in brief: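 Each compound was tested against a transplantable tumor grown in mice. The endpoint was survival, with treated animals benchmarked against vehicle controls as a simple ratio.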

[1] = dose: 100.0 mg/kg/injection, schedule: Q01DX009 (ip), vehicle: Klucel (hydroxypropylcellulose) (HPC)
[2] = dose: 200.0 mg/kg/injection, schedule: Q01DX009 (ip), vehicle: Klucel (hydroxypropylcellulose) (HPC)
[3] = dose: 400.0 mg/kg/injection, schedule: Q01DX009 (ip), vehicle: Klucel (hydroxypropylcellulose) (HPC)
[4] = dose: 100.0 mg/kg/injection, schedule: Q04DX003 (ip), vehicle: saline with Tween-80
[5] = dose: 200.0 mg/kg/injection, schedule: Q04DX003 (ip), vehicle: saline with Tween-80
[6] = dose: 100.0 mg/kg/injection, schedule: Q01DX001 (ip), vehicle: saline
[7] = dose: 200.0 mg/kg/injection, schedule: Q01DX001 (ip), vehicle: saline
[8] = dose: 400.0 mg/kg/injection, schedule: Q01DX001 (ip), vehicle: saline
[9] = dose: 100.0 mg/kg/injection, schedule: Q01DX009 (ip), vehicle: saline
[10] = dose: 25.0 mg/kg/injection, schedule: Q01DX009 (ip), vehicle: saline
[11] = dose: 25.0 mg/kg/injection, schedule: Q04DX003 (ip), vehicle: saline
[12] = dose: 50.0 mg/kg/injection, schedule: Q01DX009 (ip), vehicle: saline
[13] = dose: 50.0 mg/kg/injection, schedule: Q04DX003 (ip), vehicle: saline
[14] = dose: 100.0 mg/kg/injection, schedule: Q04DX003 (ip), vehicle: saline
[15] = dose: 100.0 mg/kg/injection, schedule: Q01DX009 (ip), vehicle: saline with Tween-80
[16] = dose: 200.0 mg/kg/injection, schedule: Q01DX009 (ip), vehicle: saline with Tween-80
[17] = dose: 50.0 mg/kg/injection, schedule: Q01DX009 (ip), vehicle: saline with Tween-80

Measured: T/C

O=C(O)c1cc(Cl)ccn1
inactive: dose: 25.0 mg/kg/injection, schedule: Q01DX009 (ip), vehicle: Klucel (hydroxypropylcellulose) (HPC) 98 % of control | dose: 50.0 mg/kg/injection, schedule: Q01DX009 (ip), vehicle: Klucel (hydroxypropylcellulose) (HPC) 102 % of control | [1] 101 % of control and 107 % of control

CN(C)[Se](=O)Cl (stereo not drawn)
inactive: dose: 12.5 mg/kg/injection, schedule: Q04DX002 (ip), vehicle: saline with Tween-80 100 % of control | dose: 25.0 mg/kg/injection, schedule: Q04DX002 (ip), vehicle: saline with Tween-80 110 % of control

CCCCCCCCCCCCCCOc1ccc(C=O)cc1OC
inactive: dose: 100.0 mg/kg/injection, schedule: Q04DX003 (ip), vehicle: Klucel (hydroxypropylcellulose) (HPC) 96 % of control | dose: 200.0 mg/kg/injection, schedule: Q04DX003 (ip), vehicle: Klucel (hydroxypropylcellulose) (HPC) 93 % of control | dose: 400.0 mg/kg/injection, schedule: Q04DX003 (ip), vehicle: Klucel (hydroxypropylcellulose) (HPC) 91 % of control

N#CCCC(=O)c1ccccn1
inactive: [2] 100 % of control | [3] 93 % of control

CCC(CC)C(O)C(C)C(C)O (stereo not drawn)
inactive: [4] 97 % of control | [5] 113 % of control | dose: 400.0 mg/kg/injection, schedule: Q04DX003 (ip), vehicle: saline with Tween-80 97 % of control

Cn1c2nc(=O)[nH]c(=O)c-2cc2ccccc21
inactive: [6] 100 % of control | [7] 94 % of control | [8] 97 % of control

CC1(C)N=C(N)N=C(N)N1c1ccc(C(=O)Nc2ccc(S(=O)(=O)F)cc2)cc1
inactive: dose: 0.8 mg/kg/injection, schedule: Q01DX009 (ip), vehicle: saline 101 % of control | dose: 4.0 mg/kg/injection, schedule: Q01DX009 (ip), vehicle: saline 100 % of control | dose: 20.0 mg/kg/injection, schedule: Q01DX009 (ip), vehicle: saline 95 % of control | [9] 97 % of control | dose: 500.0 mg/kg/injection, schedule: Q01DX009 (ip), vehicle: saline 101 % of control

CC(=O)OCC(COC(C)=O)OC(C)=O
inactive: dose: 100.0 mg/kg/injection, schedule: Q04DX002 (ip), vehicle: other 98 % of control | dose: 200.0 mg/kg/injection, schedule: Q04DX002 (ip), vehicle: other 98 % of control | dose: 400.0 mg/kg/injection, schedule: Q04DX002 (ip), vehicle: other 103 % of control

CN(C)CCN=C(Nc1ccccn1)Nc1ccccn1
inactive: dose: 12.5 mg/kg/injection, schedule: Q01DX001 (ip), vehicle: saline 113 % of control | dose: 25.0 mg/kg/injection, schedule: Q01DX001 (ip), vehicle: saline 104 % of control | [10] 110 % of control | [11] 100 % of control | dose: 50.0 mg/kg/injection, schedule: Q01DX001 (ip), vehicle: saline 113 % of control | [12] 100 % of control | [13] 95 % of control | [6] 97 % of control | [9] 97 % of control | [14] 113 % of control

CCCCCC(/C=C/C1C=CC(=O)C1C/C=C/CCCC(=O)OC)OC(C)=O (stereo not drawn)
inactive: [15] 100 % of control | [16] 97 % of control

CCCCCNC(C)C(=O)c1ccccc1 (stereo not drawn)
inactive: dose: 12.5 mg/kg/injection, schedule: Q04DX003 (ip), vehicle: saline 87 % of control | [10] 92 % of control | [11] 94 % of control | [12] 100 % of control | [13] 94 % of control | [14] 97 % of control

CCCCn1nnc2c(NCCc3cnc[nH]3)nc(N)nc21
inactive: [17] 93 % of control | [15] 95 % of control | [4] 89 % of control | [5] 89 % of control

c1ccc(Cc2[nH]c3ccccc3c2-c2ccccc2)cc1
inactive: [15] 93 % of control | dose: 100.0 mg/kg/injection, schedule: Q04DX002 (ip), vehicle: saline with Tween-80 109 % of control | [16] 87 % of control | dose: 200.0 mg/kg/injection, schedule: Q04DX002 (ip), vehicle: saline with Tween-80 100 % of control | dose: 400.0 mg/kg/injection, schedule: Q04DX002 (ip), vehicle: saline with Tween-80 90 % of control

CCCCCCCCCCCCCC(=O)CC(=O)OC
inactive: dose: 75.0 mg/kg/injection, schedule: Q04DX003 (ip), vehicle: Klucel (hydroxypropylcellulose) (HPC) 94 % of control | dose: 100.0 mg/kg/injection, schedule: Q01DX001 (ip), vehicle: Klucel (hydroxypropylcellulose) (HPC) 103 % of control | dose: 150.0 mg/kg/injection, schedule: Q04DX003 (ip), vehicle: Klucel (hydroxypropylcellulose) (HPC) 106 % of control | dose: 200.0 mg/kg/injection, schedule: Q01DX001 (ip), vehicle: Klucel (hydroxypropylcellulose) (HPC) 100 % of control | dose: 300.0 mg/kg/injection, schedule: Q04DX003 (ip), vehicle: Klucel (hydroxypropylcellulose) (HPC) 93 % of control | dose: 400.0 mg/kg/injection, schedule: Q01DX001 (ip), vehicle: Klucel (hydroxypropylcellulose) (HPC) 96 % of control

O=C(/C=C/C=C/c1cccc([N+](=O)[O-])c1)CCl
inactive: [6] 101 % of control | [7] 95 % of control | [8] 103 % of control

CN(C)/C=N\c1c(C#N)c(CC#N)nn1-c1ccccc1
inactive: dose: 25.0 mg/kg/injection, schedule: Q01DX009 (ip), vehicle: saline with Tween-80 98 % of control | dose: 25.0 mg/kg/injection, schedule: Q04DX003 (ip), vehicle: saline with Tween-80 103 % of control | [17] 100 % of control | dose: 50.0 mg/kg/injection, schedule: Q04DX003 (ip), vehicle: saline with Tween-80 93 % of control | [15] 88 % of control | [4] 98 % of control and 99 % of control

N#Cc1[nH]cnc1/N=N/N(CCF)CCF
inactive: dose: 9.5 mg/kg/injection, schedule: Q01DX009 (ip), vehicle: saline with Tween-80 101 % of control | dose: 18.0 mg/kg/injection, schedule: Q01DX009 (ip), vehicle: saline with Tween-80 121 % of control | dose: 18.0 mg/kg/injection, schedule: Q04DX003 (ip), vehicle: saline with Tween-80 98 % of control | dose: 37.0 mg/kg/injection, schedule: Q04DX003 (ip), vehicle: saline with Tween-80 116 % of control

CCCCCCCCCC(=O)N(C(C)C)C(C)C
inactive: dose: 100.0 mg/kg/injection, schedule: Q01DX001 (ip), vehicle: carboxymethylcellulose (CMC) 100 % of control | dose: 100.0 mg/kg/injection, schedule: Q01DX009 (ip), vehicle: carboxymethylcellulose (CMC) 96 % of control and 106 % of control | dose: 100.0 mg/kg/injection, schedule: Q04DX003 (ip), vehicle: carboxymethylcellulose (CMC) 93 % of control | dose: 200.0 mg/kg/injection, schedule: Q01DX001 (ip), vehicle: carboxymethylcellulose (CMC) 94 % of control | dose: 200.0 mg/kg/injection, schedule: Q01DX009 (ip), vehicle: carboxymethylcellulose (CMC) 94 % of control and 100 % of control | dose: 200.0 mg/kg/injection, schedule: Q04DX003 (ip), vehicle: carboxymethylcellulose (CMC) 95 % of control | dose: 400.0 mg/kg/injection, schedule: Q01DX001 (ip), vehicle: carboxymethylcellulose (CMC) 96 % of control | dose: 400.0 mg/kg/injection, schedule: Q01DX009 (ip), vehicle: carboxymethylcellulose (CMC) 95 % of control | dose: 400.0 mg/kg/injection, schedule: Q04DX003 (ip), vehicle: carboxymethylcellulose (CMC) 92 % of control

COc1c(OC)c2c3c(c(-c4c(C)cc5c(C(C)C)c(OC)c(OC)c6c5c4OC6OC)c(C)cc3c1C(C)C)OC2OC (stereo not drawn)
inactive: [1] 102 % of control | [2] 102 % of control | [3] 107 % of control

CCCCCCCCCCCCCCCCOc1ccc(F)cc1
inactive: dose: 100.0 mg/kg/injection, schedule: Q04DX002 (ip), vehicle: Klucel (hydroxypropylcellulose) (HPC) 103 % of control | dose: 200.0 mg/kg/injection, schedule: Q04DX002 (ip), vehicle: Klucel (hydroxypropylcellulose) (HPC) 118 % of control | dose: 400.0 mg/kg/injection, schedule: Q04DX002 (ip), vehicle: Klucel (hydroxypropylcellulose) (HPC) 107 % of control

Cc1cccc(Cl)c1NC(=O)CCCl
inactive: [15] 103 % of control | [16] 104 % of control | dose: 400.0 mg/kg/injection, schedule: Q01DX009 (ip), vehicle: saline with Tween-80 90 % of control

Reference: PubChem BioAssay AID248 (DTP/NCI, 2004)
